Eight molecules from patent US12441773B2, “Peptides, hydrogel compositions and methods of use thereof” (Regents of the University of Minnesota, priority 2019, dated 2025) can be followed below.

A short description of series [1]: Hydrogel formation with dilute sodium hydroxide, Crystal Violet overlay. The note with it: 8.3 mg/ml peptide, 16.7 mM NaOH, room temperature 5-10 min. The class given is physicochemical. On the procedure: FIG. 2: Hydrogel formation of GL13 peptides. Hydrogels are overlaid with Crystal Violet solution. D=DGL13K; R=DGL13R; PEG-L=PEG-LGL13K; pro-D=PEG-pro-DGL13K; E4=PEG-E4-pro-DGL13K; L=LGL13K.
FIG. 8: Hydrogels were formed with 4.2 mg/ml peptide+sodium hydroxide at the concentrations shown. Hydrogels were overlaid with Crystal Violet. Two phases indicate the formation of a hydrogel; Phase mixing indicates the absence of hydrogel. The hydrogels formed at 6.7 mM NaOH were not stable overnight (not shown).
FIG. 9: Hydrogels were formed with 16.7 mM sodium hydroxide and peptides at the concentrations shown. D=DGL13K; L=LGL13K; R=DGL13R. Hydrogels were overlaid with Crystal Violet and imaged within 10 min. Two phases indicate the formation of a hydrogel; Phase mixing indicates the absence of hydrogel.
The antimicrobial peptide GL13K can form a hydrogel when the peptide is reacted with dilute sodium hydroxide. Hydrogels were formed by incubating 8.3 mg/ml peptide with 16.7 mM NaOH and incubating at room temperature for 5-10 min. Hydrogels were overlaid with Crystal Violet. Two phases indicate the formation of a hydrogel; Phase mixing indicates the absence of hydrogel.

The format of series [2] is physicochemical. On the procedure: FIG. 1: Turbidity of peptide solutions at 630 nm. Peptides were suspended in 0.01% acetic acid (our standard peptide solvent), Phosphate-Buffered Saline (PBS), pH 7.4 or dH2O.
LGL13K and DGL13K are not soluble in physiological salt solution (PBS). […] In FIG. 1, solubility is measured as the absence of optical density (OD) due to turbidity at 630 nm.

The nature of the next series: in vitro. Type of series: cell-based. The note with it: human, human red blood cells. How it is done: FIG. 7: The in vitro toxicity of soluble DGL13K and PEG-pro-DGL 13K was tested against human Red Blood Cells and hemolysis recorded (% lysis compared to dH2O).
The dose causing lysis of 50% (LD50) of human red blood cells (RBC) was determined and the therapeutic index (Tx Indx) was calculated as LD50/MIC.

The test system of another series is S. aureus. As to the kind of experiment: Peptide hydrogels placed on S. aureus plated on agar. The class given is cell-based, Staphylococcus aureus. The note with it: hydrogel on agar plate. How it is done:
FIG. 3. Peptide hydrogels on S. aureus.
(§1) To test antibacterial activity, S. aureus (FIG. 3) or P. aeruginosa (FIG. 4) were plated on agar and peptide hydrogels placed on top of the bacteria. The plates were incubated to allow a bacterial lawn to grow. […] The larger inhibition zone seen for DGL13R is consistent with a lack of hydrogel formation, which allowed the peptide solution to spread on the plate.

In the next series the test system is Pseudomonas aeruginosa. Type of series: cell-based. On the procedure: (§2) Standard broth dilution assays were performed to determine the Minimal Inhibitory Concentration (MIC) of each peptide against Pseudomonas aeruginosa (P.a.) or Staphylococcus aureus (S.a.) (Table 2).
A further series relates to Staphylococcus aureus. The class given is cell-based. On the procedure:
as §2

The test system of series [3] is Galleria mellonella (waxmoth larvae). The note with it: in vivo. On the procedure: FIG. 6: Galleria mellonella (wax moth larvae) were injected with liquid or hydrogel forms of the listed peptide. Larval survival was monitored for 48 h.
Hydrogels are less toxic in vitro and in vivo than the unmodified peptide. To test toxicity in vivo, hydrogels of DGL13K, PEG-pro-DGL13K (PEG-DGL13K) or liquid PEG-DGL13K were injected into Galleria mellonella (waxmoth larvae) and survival monitored for 48 hrs (FIG. 6). […] Hydrogel of PEG-pro-DGL13K was less toxic than hydrogel of the unmodified DGL13K peptide.

The subject of a further series is P. aeruginosa. Nature of the series: Peptide hydrogels placed on P. aeruginosa plated on agar. The class given is cell-based, Pseudomonas aeruginosa. The note with it: hydrogel on agar plate. On the procedure:
FIG. 4: Peptide hydrogels on P. aeruginosa Ac.Ac.=0.01% acetic acid mixed with NaOH (buffer control).
as §1

For the next series, the system named is mouse skin burn. As to the kind of experiment: Mouse burn wound healing model. The class given is in vivo. The note with it: seven days after the burn.

Where a SMILES comes first, the peptide text is derived from it. [ ]: non-standard residue; d: D form. The star is where a group is joined. MeOCH2CH2OCH2CO = COCCOCC(=O)*; PEG = not defined here; PEG1 = NCCOCCC(=O)O

“PEG-d-Glu-d-Glu-d-Glu-d-Glu-d-Leu-Gly-Gly-d-Ala-Gly-d-Lys-d-Ile-d-Ile-d-Lys-d-Leu-d-Lys-d-Ala-d-Ser-d-Leu-d-Lys-d-Leu-d-Leu-CONH2 ({PEG}-[dE][dE][dE][dE][dL]GG[dA]G[dK][dI][dI][dK][dL][dK][dA][dS][dL][dK][dL][dL]-NH2; reading uncertain) [PEG-E4-pro-DGL13K]”: in series [1], the Hydrogel formation result is given as “did not form hydrogels”.

On to H-GKIIKLKASLKLL-NH2 [LGL13K], for which the “Solubility in physiological salt solution (PBS)” value in series [2] is on record as “not soluble”. Moreover, the concentration for 50% haemolysis (HC50) (commonly the concentration giving 50% haemolysis) in “in vitro” was determined as 188 µg/mL. Moreover, the Hydrogel formation result in series [1] is recorded as “formed hydrogels”. Besides, the “Growth of S. aureus lawn under peptide hydrogel” value in the series with S. aureus is recorded as “prevented the growth”. Moreover, the “Minimal Inhibitory Concentration P.a.” value in the series with Pseudomonas aeruginosa came out at 10.4 µg/mL. For the same molecule, in the series with Staphylococcus aureus, the “Minimal Inhibitory Concentration S.a.” value came to 20.8 µg/mL.

Regarding `CC[C@@H](C)[C@@H](NC(=O)[C@@H](CCCCN)NC(=O)CNC(=O)[C@@H](C)NC(=O)CNC(=O)CNC(=O)[C@@H](CC(C)C)NC(=O)CCOCCN)C(=O)N[C@@H](C(=O)N[C@H](CCCCN)C(=O)N[C@H](CC(C)C)C(=O)N[C@H](CCCCN)C(=O)N[C@H](C)C(=O)N[C@H](CO)C(=O)N[C@H](CC(C)C)C(=O)N[C@H](CCCCN)C(=O)N[C@H](CC(C)C)C(=O)N[C@H](CC(C)C)C(N)=O)[C@H](C)CC` [PEG-pro-DGL13K, PEG-d-Leu-Gly-Gly-d-Ala-Gly-d-Lys-d-Ile-d-Ile-d-Lys-d-Leu-d-Lys-d-Ala-d-Ser-d-Leu-d-Lys-d-Leu-d-Leu-CONH2] (H-[PEG1][dL]GG[dA]G[dK][dI][dI][dK][dL][dK][dA][dS][dL][dK][dL][dL]-NH2), the “Toxicity of hydrogel compared with hydrogel of unmodified DGL13K” value in [3] was “less toxic”. The molecule further displayed a concentration for 50% haemolysis (HC50) in the series “in vitro” of 1000 µg/mL. The “Minimal Inhibitory Concentration P.a.” value in the series with Pseudomonas aeruginosa turned out to be 10.4 µg/mL. Further, the “Minimal Inhibitory Concentration S.a.” value in the series with Staphylococcus aureus was determined as 5.2 µg/mL.

With `CC[C@@H](C)[C@@H](NC(=O)[C@@H](CCCNC(=N)N)NC(=O)CN)C(=O)N[C@@H](C(=O)N[C@H](CCCNC(=N)N)C(=O)N[C@H](CC(C)C)C(=O)N[C@H](CCCNC(=N)N)C(=O)N[C@H](C)C(=O)N[C@H](CO)C(=O)N[C@H](CC(C)C)C(=O)N[C@H](CCCNC(=N)N)C(=O)N[C@H](CC(C)C)C(=O)N[C@H](CC(C)C)C(N)=O)[C@H](C)CC` [DGL13R, NH2-Gly-d-Arg-d-Ile-d-Ile-d-Arg-d-Leu-d-Arg-d-Ala-d-Ser-d-Leu-d-Arg-d-Leu-d-Leu-CONH2] (H-G[dR][dI][dI][dR][dL][dR][dA][dS][dL][dR][dL][dL]-NH2), the “Growth of P. aeruginosa lawn under peptide hydrogel” value with P. aeruginosa was “effectively prevented the growth”. For the same molecule, the “Solubility in physiological salt solution (PBS)” value in series [2] is recorded as “increased solubility”. Further, the HC50 in “in vitro” worked out at 500 µg/mL. The Hydrogel formation entry in series [1] is “did not form hydrogels”. For the same molecule, the “Minimal Inhibitory Concentration P.a.” value with Pseudomonas aeruginosa came out at 2.6 µg/mL. In the series with Staphylococcus aureus, the “Minimal Inhibitory Concentration S.a.” value was 1.3 to 2.6 µg/mL.

As to `CC[C@@H](C)[C@@H](NC(=O)[C@@H](CCCCN)NC(=O)CNC(=O)CCOCCN)C(=O)N[C@@H](C(=O)N[C@H](CCCCN)C(=O)N[C@H](CC(C)C)C(=O)N[C@H](CCCCN)C(=O)N[C@H](C)C(=O)N[C@H](CO)C(=O)N[C@H](CC(C)C)C(=O)N[C@H](CCCCN)C(=O)N[C@H](CC(C)C)C(=O)N[C@H](CC(C)C)C(N)=O)[C@H](C)CC` [PEG-DGL13K, PEG-Gly-d-Lys-d-Ile-d-Ile-d-Lys-d-Leu-d-Lys-d-Ala-d-Ser-d-Leu-d-Lys-d-Leu-d-Leu-CONH2] (H-[PEG1]G[dK][dI][dI][dK][dL][dK][dA][dS][dL][dK][dL][dL]-NH2), in series [2], the “Solubility in physiological salt solution (PBS)” value is on record as “soluble in PBS”. In addition, the “Toxicity of hydrogel compared with hydrogel of unmodified DGL13K” value in series [3] is “less toxic”. In the series with Pseudomonas aeruginosa, the “Minimal Inhibitory Concentration P.a.” value is 5 to 10.4 µg/mL.

Regarding `CC[C@H](C)[C@H](NC(=O)[C@H](CCCCN)NC(=O)CNC(=O)COCCOC)C(=O)N[C@H](C(=O)N[C@@H](CCCCN)C(=O)N[C@@H](CC(C)C)C(=O)N[C@@H](CCCCN)C(=O)N[C@@H](C)C(=O)N[C@@H](CO)C(=O)N[C@@H](CC(C)C)C(=O)N[C@@H](CCCCN)C(=O)N[C@@H](CC(C)C)C(=O)N[C@@H](CC(C)C)C(N)=O)[C@@H](C)CC` [PEG-LGL13K] (MeOCH2CH2OCH2CO-GKIIKLKASLKLL-NH2; N-terminus assumed), the Hydrogel formation result in series [1] is “formed hydrogels”. The “Minimal Inhibitory Concentration P.a.” value with Pseudomonas aeruginosa was found to be 20.8 µg/mL. Also, the “Minimal Inhibitory Concentration S.a.” value with Staphylococcus aureus is 83 µg/mL.

polymyxin B [reference compound]: in [1], the Hydrogel formation result is listed as “does not form hydrogel”.

For the molecule `CC[C@@H](C)[C@@H](NC(=O)[C@@H](CCCCN)NC(=O)CN)C(=O)N[C@@H](C(=O)N[C@H](CCCCN)C(=O)N[C@H](CC(C)C)C(=O)N[C@H](CCCCN)C(=O)N[C@H](C)C(=O)N[C@H](CO)C(=O)N[C@H](CC(C)C)C(=O)N[C@H](CCCCN)C(=O)N[C@H](CC(C)C)C(=O)N[C@H](CC(C)C)C(N)=O)[C@H](C)CC` [DGL13K, NH2-Gly-d-Lys-d-Ile-d-Ile-d-Lys-d-Leu-d-Lys-d-Ala-d-Ser-d-Leu-d-Lys-d-Leu-d-Leu-CONH2] (H-G[dK][dI][dI][dK][dL][dK][dA][dS][dL][dK][dL][dL]-NH2), in the series on P. aeruginosa, the “Growth of P. aeruginosa lawn under peptide hydrogel” value is on record as “effectively prevented the growth”. The molecule further showed an HC50 in “in vitro” of 500 µg/mL. Besides, the Hydrogel formation result in [1] was “formed hydrogels”. Also, the “Growth of S. aureus lawn under peptide hydrogel” value in the series on S. aureus is “prevented the growth”. The “Minimal Inhibitory Concentration P.a.” value in the series with Pseudomonas aeruginosa was determined as 5.2 µg/mL. Further, the “Minimal Inhibitory Concentration S.a.” value in the series with Staphylococcus aureus was 1.3 to 2.6 µg/mL. Also, the “Improved healing compared to SSD-treated mice” value in the series on mouse skin burn is listed as 48%. In the series on mouse skin burn (peptide in solution or hydrogel), the “Improved healing compared to the control mice” value was 36%.
